Measured values from patent US20230219965A1 (KSQ Therapeutics, Inc., priority 2020, published 2023).
Where two headings read alike, the source gives them in different places.

Columns and labels:
[1] = system: Ub-PCNA levels in the nucleus of ES2 cells (USP1 activity); assay: ES2 Ub-PCNA immunofluorescence (IF) assay; assay type: cell-based; conditions: ES2 cells, 3 hours, Ub-PCNA immunofluorescence, read-out: USP1 IC50 (Ub-PCNA)
Procedure: USP1 is a deubiquitinating enzyme that removes ubiquitin from mono-ubiquitinated Proliferating Cell Nuclear Antigen (Ub-PCNA). The levels of Ub-PCNA in the nucleus of cells can be used to assess the activity of USP1. An immunofluorescence assay can be established to monitor Ub-PCNA levels in the ovarian cancer cell line, ES2.
An assay can be performed by first plating 5000 ES2 cells per well in black 96 well plates (Corning #3904) and then incubating overnight at 37° C. and 5% CO2. Compounds, resuspended in DMSO, can be added to the cells, to a final DMSO concentration of 0.3%. Plates can be incubated at 37° C. and 5% CO2 for 3 hours.
Cells can be then fixed and stained by first removing the media from each plate and fixing the cells with −20° C. methanol for 5 minutes at room temperature. Fixation plates can be washed with Tris buffered saline with tween (Boston Bioproducts #IBB-855) 5 times for 5 minutes each. Plates can be blocked for 1 hour with 50 μl of Odyssey blocking buffer (Licor #327-50000) at room temperature with rocking. Block can be removed from all wells and 50 μl of primary antibody was added to each well. Ub-PCNA ab (Cell Signaling Technology #13439) can be diluted at 1:400 in Odyssey blocking buffer. Plates can be sealed and incubated overnight at 4° C. Primary antibodies can be removed from the plates and plates can be washed with Tris buffered saline with tween 5 times for 5 minutes. Plates can be stained for 1 hour at room temperature with rocking with 50 μl of secondary antibodies diluted 1:10,000 in Odyssey blocking buffer at room temperature (anti-rabbit Alexa 488). Antibodies can be removed from the plates and plates can be washed with Tris buffered saline with tween 3 times for 5 minutes. Plates can be washed once with DAPI (Chemometec #910-3012) stain diluted 1:5000 (Stock solution of 500 μg/ml) in tris buffered saline with tween for 5 minutes. DAPI stain can be removed and plates can be washed one additional time for 5 minutes with tris buffered saline with tween. Wash can be removed from the plate and 100 μl tris buffered saline with tween can be added back to all wells, Plates can be sealed with Foil seals or black plate seals and plates can be stored at 4° C. until they can be imaged.
Imaging of the plates can be performed by first locating the nuclei using the DAPI stain. A mask can be created by drawing a circle slightly smaller than each nucleus. Ub-PCNA intensities can be measured for each individual nucleus counted. A histogram of all Ub-PCNA nuclear intensities measured in untreated wells can be generated and a 95% cutoff can be established. This 95% cutoff can be used to determine the number of Positive cells that have Ub-PCNA values higher than the 95% cutoff. The number of positive cells can be expressed as a percentage by dividing by the total number of cells in the well. This percent positive value can be used to graph all data and to determine AC50 values.
USP1 is a deubiquitinating enzyme that removes ubiquitin from mono-ubiquitinated
Proliferating Cell Nuclear Antigen (Ub-PCNA). The levels of Ub-PCNA in the nucleus of cells was used to assess the activity of USP1. An immunofluorescence assay was established to monitor Ub-PCNA levels in the ovarian cancer cell line, ES2.
This assay was performed by first plating 5000 ES2 cells per well in black 96 well plates (Corning #3904) and then incubated overnight at 37° C. and 5% CO2. Compounds, resuspended in DMSO, were added to the cells, to a final DMSO concentration of 0.3%. Plates were incubated at 37° C. and 5% CO2 for 3 hours.
Cells were then fixed and stained by first removing the media from each plate and fixing the cells with −20° C. methanol for 5 minutes at room temperature. Following fixation plates were washed with Tris buffered saline with tween (Boston Bioproducts ABB-855) 5 times for 5 minutes each. Plates were blocked for 1 hour with 50μ.1 of Odyssey blocking buffer (Licor #327-50000) at room temperature with rocking. […]

[2] = ADME solubility determination in PBS at pH 2.0 and pH 7.4; assay type: physicochemical; conditions: for solubility at 24 h: phosphate buffered saline, 25 °C, thermodynamic from solid
Procedure: Certain Compounds of the Disclosure were assessed for ADME solubility at pH 2.0 and pH 7.4.
Stock solutions were prepared by adding each compound to DMSO at a concentration of 10 mM. Samples were prepared by adding 50 μL of each stock solution to separate vials. The vials were loaded onto a 96-well rack and dried. 500 μL of Phosphate Buffered Saline (PBS) pH 7.4 or PBS pH 2.0 were added into each vial. The vials were then shaken at 25° C. and 1,100 rpm for 24 hours.
After 24 hours, the vials were centrifuged at 3220 G and 25° C. for 30 minutes. The supernatant fluid was analyzed by LC-MS/MS against a standard of known concentration. The solubility of each sample was then calculated using the equation below: […]
where DF is the dilution factor.

USP1/UAF1 enzyme = USP1/UAF1 enzyme (Homo sapiens, UniProt O94782); assay: USP1/UAF1 deubiquitination assay (ubiquitin-rhodamine 110 substrate); assay type: biochemical; conditions: read-out: USP1 IC50 (Ub-Rho)
USP1/UAF1 enzyme, sequence (O94782 whole entry): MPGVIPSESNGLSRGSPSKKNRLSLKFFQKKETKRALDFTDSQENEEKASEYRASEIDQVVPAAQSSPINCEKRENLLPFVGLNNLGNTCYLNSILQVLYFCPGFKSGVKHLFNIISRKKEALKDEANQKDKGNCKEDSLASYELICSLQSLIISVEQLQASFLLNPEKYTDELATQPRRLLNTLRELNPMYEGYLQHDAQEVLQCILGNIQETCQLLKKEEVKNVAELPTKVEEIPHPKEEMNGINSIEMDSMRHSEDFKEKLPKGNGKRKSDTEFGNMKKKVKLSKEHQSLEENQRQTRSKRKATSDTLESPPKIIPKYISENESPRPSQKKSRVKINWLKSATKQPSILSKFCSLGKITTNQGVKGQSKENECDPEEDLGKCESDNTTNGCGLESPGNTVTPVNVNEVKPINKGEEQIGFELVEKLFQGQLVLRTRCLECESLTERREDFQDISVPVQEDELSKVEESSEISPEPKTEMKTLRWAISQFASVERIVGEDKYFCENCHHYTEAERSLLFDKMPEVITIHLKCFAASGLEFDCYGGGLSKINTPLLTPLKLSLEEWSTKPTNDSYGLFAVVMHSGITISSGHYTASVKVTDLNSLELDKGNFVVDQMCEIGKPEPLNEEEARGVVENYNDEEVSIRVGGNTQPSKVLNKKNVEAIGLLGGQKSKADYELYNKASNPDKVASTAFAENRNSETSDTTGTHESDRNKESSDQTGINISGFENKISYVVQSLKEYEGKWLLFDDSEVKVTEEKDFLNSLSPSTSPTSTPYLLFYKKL
USP1/UAF1 enzyme, sequence (Q8TAF3 whole entry partner): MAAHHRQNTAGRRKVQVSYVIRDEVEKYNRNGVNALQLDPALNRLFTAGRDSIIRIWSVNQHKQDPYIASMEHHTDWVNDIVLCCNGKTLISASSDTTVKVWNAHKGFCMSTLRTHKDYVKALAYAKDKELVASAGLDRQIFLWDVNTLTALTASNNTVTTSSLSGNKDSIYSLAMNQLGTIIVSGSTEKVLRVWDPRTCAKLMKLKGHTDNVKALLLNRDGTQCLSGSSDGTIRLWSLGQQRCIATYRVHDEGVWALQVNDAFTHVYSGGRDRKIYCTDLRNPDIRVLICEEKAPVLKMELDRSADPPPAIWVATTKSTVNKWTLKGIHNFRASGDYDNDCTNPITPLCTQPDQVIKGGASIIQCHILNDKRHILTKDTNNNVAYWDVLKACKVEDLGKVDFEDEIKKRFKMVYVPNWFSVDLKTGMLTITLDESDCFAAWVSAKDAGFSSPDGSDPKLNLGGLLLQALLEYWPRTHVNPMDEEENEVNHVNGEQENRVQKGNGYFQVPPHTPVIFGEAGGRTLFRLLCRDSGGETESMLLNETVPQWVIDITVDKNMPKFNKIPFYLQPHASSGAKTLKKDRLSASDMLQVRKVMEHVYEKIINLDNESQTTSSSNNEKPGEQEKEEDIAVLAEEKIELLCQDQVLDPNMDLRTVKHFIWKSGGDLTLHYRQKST
Procedure, shortened: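 Cleavage of 150 nM ubiquitin-rhodamine 110 by 0.05 nM USP1/UAF1 was followed as fluorescence (Ex480/Em540, kinetic, 30 min) in Tris-HCl pH 7.8 buffer with EDTA, BSA, DTT and Tween-20. Compounds, top 10 μM, were preincubated with enzyme 10 min; % inhibition against no-enzyme and DMSO wells gave four-parameter IC50s.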

[3] = Liver microsomal metabolic stability, rat liver microsomes (RLM); conditions: rat, liver microsomes, t1/2 (min) in RLM, 1 μM compound, 1 mg/mL microsomes, NADPH
[4] = Liver microsomal metabolic stability, human liver microsomes (HLM); conditions: human, liver microsomes
[5] = pH 2, aqueous buffer, PBS pH 2.0, 25° C., read-out: Solubility at pH 2.0
[6] = pH 7.4, aqueous buffer, PBS pH 7.4, 25° C., read-out: Solubility at pH 7.4

COc1ncnc(C)c1-c1cc2n(n1)CCCN2Cc1ccc(-c2nc(C(F)(F)F)cn2C)cc1 [Example 25]
IC50 ([1]; Homo sapiens, ES-2): > 500 nM
solubility at 24 h [2, 5]: ≥ 10 µM
solubility at 24 h [2, 6]: ≥ 10 µM
IC50 (USP1/UAF1 enzyme): 100 to 500 nM
half-life at 1 μM [3]: < 25 min
half-life at 1 μM [4]: < 25 min

Cc1cnn(C(C)C)c1-c1cc2n(n1)CCC(=O)N2Cc1ccc(-c2nc(C(F)(F)F)cn2C(C)C)cc1 [Example 73]
IC50 ([1]; Homo sapiens, ES-2): 100 to 500 nM
solubility at 24 h [2, 5]: < 10 µM
solubility at 24 h [2, 6]: < 10 µM
IC50 (USP1/UAF1 enzyme): < 100 nM
half-life at 1 μM [3]: < 25 min
half-life at 1 μM [4]: < 25 min

CCn1cc(C(F)(F)F)nc1-c1ccc(NC2CCCn3nc(-c4c(Cl)cnn4C(C)C)nc32)cc1F (stereo not drawn) [Example 257, 2-(4-chloro-1-isopropyl-1H-pyrazol-5-yl)-N-(4-(1-ethyl-4-(trifluoromethyl)-1H-imidazol-2-yl)-3-fluorophenyl)-5,6,7,8-tetrahydro-[1,2,4]triazolo[1,5-a]pyridin-8-amine]
solubility at 24 h [2, 5]: < 10 µM
solubility at 24 h [2, 6]: < 10 µM
IC50 (USP1/UAF1 enzyme): 100 to 500 nM
half-life at 1 μM [3]: > 25 min
half-life at 1 μM [4]: > 25 min

CCn1cc(C(F)(F)F)nc1-c1ccc(CN2C(=O)CCn3nc(-c4c(Cl)cnn4C(C)(C)COC)cc32)cc1F [Example 162]
IC50 ([1]; Homo sapiens, ES-2): 100 to 500 nM
solubility at 24 h [2, 5]: ≥ 10 µM
solubility at 24 h [2, 6]: ≥ 10 µM
IC50 (USP1/UAF1 enzyme): < 100 nM
half-life at 1 μM [3]: < 25 min

COc1ncnc(C2CC2)c1-c1nc2n(n1)CCC(=O)N2[C@@H](C)c1ccc(-c2nc(C(F)(F)F)c(Br)n2C)cc1 [Example 205]
solubility at 24 h [2, 5]: < 10 µM
solubility at 24 h [2, 6]: ≥ 10 µM
IC50 (USP1/UAF1 enzyme): < 100 nM
half-life at 1 μM [3]: > 25 min
half-life at 1 μM [4]: < 25 min

CC(C)n1cc([N+](=O)[O-])nc1-c1ccc(CN2C(=O)CCn3nc(-c4c(Cl)cnn4C(C)C)cc32)cc1 [Example 112]
solubility at 24 h [2, 5]: < 10 µM
solubility at 24 h [2, 6]: < 10 µM
IC50 (USP1/UAF1 enzyme): < 100 nM
half-life at 1 μM [3]: < 25 min
half-life at 1 μM [4]: > 25 min

CCn1cc(C(F)(F)F)nc1-c1ccc(CN2C(=O)CCn3nc(-c4c(Cl)cnn4C4COC4)cc32)cc1 [Example 154, 2-(4-chloro-1-(oxetan-3-yl)-1H-pyrazol-5-yl)-4-(4-(1-ethyl-4-(trifluoromethyl)-1H-imidazol-2-yl)benzyl)-6,7-dihydropyrazolo[1,5-α]pyrimidin-5(4H)-one]
solubility at 24 h [2, 5]: < 10 µM
solubility at 24 h [2, 6]: < 10 µM
IC50 (USP1/UAF1 enzyme): < 100 nM
half-life at 1 μM [3]: > 25 min
half-life at 1 μM [4]: > 25 min

Cc1cnn(C(C)C)c1-c1cc2n(n1)CC(C)C(=O)N2Cc1ccc(-c2nc(C(F)(F)F)cn2C)cc1 (stereo not drawn) [Example 31, 2-(1-isopropyl-4-methyl-1H-pyrazol-5-yl)-6-methyl-4-(4-(1-methyl-4-(trifluoromethyl)-1H-imidazol-2-yl)benzyl)-6,7-dihydropyrazolo[1,5-α]pyrimidin-5(4H)-one]
solubility at 24 h [2, 5]: ≥ 10 µM
solubility at 24 h [2, 6]: < 10 µM
IC50 (USP1/UAF1 enzyme): 100 to 500 nM
half-life at 1 μM [3]: < 25 min
half-life at 1 μM [4]: < 25 min

CC(C)Oc1cccnc1-c1ccc(CN2C(=O)CCn3nc(-c4c(Cl)cnn4C(C)C)cc32)cc1Cl [Example 310]
solubility at 24 h [2, 5]: ≥ 10 µM
solubility at 24 h [2, 6]: < 10 µM
IC50 (USP1/UAF1 enzyme): < 100 nM
half-life at 1 μM [3]: < 25 min
half-life at 1 μM [4]: < 25 min

CC(C)n1ncc(Cl)c1-c1cc2n(n1)CCC(=O)N2Cc1ccc(-c2ncccc2N(C)C)c(Cl)c1 [Example 312]
solubility at 24 h [2, 5]: ≥ 10 µM
solubility at 24 h [2, 6]: < 10 µM
IC50 (USP1/UAF1 enzyme): < 100 nM
half-life at 1 μM [3]: < 25 min
half-life at 1 μM [4]: < 25 min

COc1cccnc1-c1ccc(CN2C(=O)CCn3nc(-c4c(Cl)cnn4C(C)C)cc32)cc1Cl [Example 288]
solubility at 24 h [2, 5]: ≥ 10 µM
solubility at 24 h [2, 6]: < 10 µM
IC50 (USP1/UAF1 enzyme): < 100 nM
half-life at 1 μM [3]: < 25 min
half-life at 1 μM [4]: < 25 min

CCn1cc(C(F)(F)F)nc1-c1ccc([C@@H](C)N2C(=O)CCn3nc(-c4c(OC(F)F)ncnc4C4CC4)nc32)cc1 [Example 208]
solubility at 24 h [2, 5]: ≥ 10 µM
solubility at 24 h [2, 6]: ≥ 10 µM
IC50 (USP1/UAF1 enzyme): < 100 nM
half-life at 1 μM [3]: < 25 min
half-life at 1 μM [4]: > 25 min

CCn1cc(C(F)(F)F)nc1-c1ccc(N[C@@H]2CCCn3nc(-c4c(Cl)cnn4[C@@H](C)CF)cc32)cc1 (single isomer, unassigned) [Example 324]
solubility at 24 h [2, 5]: < 10 µM
solubility at 24 h [2, 6]: < 10 µM
IC50 (USP1/UAF1 enzyme): < 100 nM
half-life at 1 μM [3]: > 25 min
half-life at 1 μM [4]: > 25 min

Cn1cc(C(F)(F)F)nc1-c1ccc(CN2C(=O)CCn3nc(-c4c(Cl)cnn4C4CCC4)cc32)cc1F [Example 19, 2-(4-chloro-1-cyclobutyl-1H-pyrazol-5-yl)-4-(3-fluoro-4-(1-methyl-4-(trifluoromethyl)-1H-imidazol-2-yl)benzyl)-6,7-dihydropyrazolo[1,5-a]pyrimidin-5(4H)-one]
solubility at 24 h [2, 5]: < 10 µM
solubility at 24 h [2, 6]: < 10 µM
IC50 (USP1/UAF1 enzyme): < 100 nM
half-life at 1 μM [3]: < 25 min
half-life at 1 μM [4]: < 25 min

CCn1cc(C(F)(F)F)nc1-c1ccc(CN2C(=O)CCn3nc(-c4c(Cl)cnn4C(C)C)cc32)cc1F [Example 77, 2-(4-chloro-1-isopropyl-1H-pyrazol-5-yl)-4-(4-(1-ethyl-4-(trifluoromethyl)-1H-imidazol-2-yl)-3-fluorobenzyl)-6,7-dihydropyrazolo[1,5-α]pyrimidin-5(4H)-one]
solubility at 24 h [2, 5]: < 10 µM
solubility at 24 h [2, 6]: < 10 µM
IC50 (USP1/UAF1 enzyme): < 100 nM
half-life at 1 μM [3]: < 25 min
half-life at 1 μM [4]: > 25 min

Cc1cnn(C(C)C)c1-c1cc2n(n1)CCCN2Cc1ccc(-c2nc(C(F)(F)F)cn2C)cc1 [Example 47, 2-(1-isopropyl-4-methyl-1H-pyrazol-5-yl)-4-(4-(1-methyl-4-(trifluoromethyl)-1H-imidazol-2-yl)benzyl)-4,5,6,7-tetrahydropyrazolo[1,5-α]pyrimidine]
IC50 [1]: < 100 nM
Solubility at pH 2.0 (μM) ([2]; PBS pH 2.0, 25° C., 24 hours): ++ (“++” indicates 10 μM or greater)
Solubility at pH 7.4 (μM) ([2]; PBS pH 7.4, 25° C., 24 hours): + (“+” indicates less than 10 μM)
IC50 (USP1/UAF1 enzyme): < 100 nM
